Experimental data reported in PubChem BioAssay AID2060509 (Molecular Pharmacology Branch, DTP, NCI, 2025).

Test system: 485176-168-R4-J1-PDC spheroids with HUVEC/MSC, viability
Assay: Anticancer human tumor 485176-168-R4-J1-PDC patient-derived pancreatic adenocarcinoma cell line growth inhibition [GQUAD]
Conditions: for IC50: curve of first compound; for viability, T/C: stronger effect = lower value
Outline: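 Tumor cells were grown as complex spheroids with HUVEC endothelial cells and mesenchymal stem cells as stroma. G-quadruplex stabilizers were combined with targeted agents over half-log dilutions from near the clinical Cmax, or from 10 microM.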

[1] = second compound 0.0316 µM, first compound 0.0316 µM
[2] = second compound 0.0316 µM, first compound 0.1 µM
[3] = second compound 0.0316 µM, first compound 0.316 µM
[4] = second compound 0.0316 µM, first compound 1 µM
[5] = second compound 0.0316 µM, first compound 3.16 µM
[6] = second compound 0.0316 µM, first compound 10 µM
[7] = second compound 0.1 µM, first compound 0.0316 µM
[8] = second compound 0.1 µM, first compound 0.1 µM
[9] = second compound 0.1 µM, first compound 0.316 µM
[10] = second compound 0.1 µM, first compound 1 µM
[11] = second compound 0.1 µM, first compound 3.16 µM
[12] = second compound 0.1 µM, first compound 10 µM
[13] = second compound 0.316 µM, first compound 0.0316 µM
[14] = second compound 0.316 µM, first compound 0.1 µM
[15] = second compound 0.316 µM, first compound 0.316 µM
[16] = second compound 0.316 µM, first compound 1 µM
[17] = second compound 0.316 µM, first compound 3.16 µM
[18] = second compound 0.316 µM, first compound 10 µM
[19] = second compound 1 µM, first compound 0.0316 µM
[20] = second compound 1 µM, first compound 0.1 µM
[21] = second compound 1 µM, first compound 0.316 µM
[22] = second compound 1 µM, first compound 1 µM
[23] = second compound 1 µM, first compound 3.16 µM
[24] = second compound 1 µM, first compound 10 µM
[25] = second compound 3.16 µM, first compound 0.0316 µM
[26] = second compound 3.16 µM, first compound 0.1 µM
[27] = second compound 3.16 µM, first compound 0.316 µM
[28] = second compound 3.16 µM, first compound 1 µM
[29] = second compound 3.16 µM, first compound 3.16 µM
[30] = second compound 3.16 µM, first compound 10 µM
[31] = second compound 10 µM, first compound 0.0316 µM
[32] = second compound 10 µM, first compound 0.1 µM
[33] = second compound 10 µM, first compound 0.316 µM
[34] = second compound 10 µM, first compound 1 µM
[35] = second compound 10 µM, first compound 3.16 µM
[36] = second compound 10 µM, first compound 10 µM
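Further: spheroids exposed to compounds for seven days before readout.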
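Wherever viability, T/C is given: percent viability relative to DMSO vehicle control wells as 100%.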

O=C(NO)c1cnc(N2CCN(S(=O)(=O)c3ccc4ccccc4c3)CC2)nc1 + Cc1cnc(CNC(=O)c2c(=O)c3ccc(N4CCCN(C)CC4)nc3n3c2sc2ccccc23)cn1 showed an IC50 (second compound 0.0316 µM) of 322 nM, an IC50 (second compound 0.1 µM) of 185 nM and an IC50 (second compound 0.316 µM) of 132 nM. For the same compound, the IC50 (second compound 1 µM) was less than 31.6 nM, the IC50 (second compound 3.16 µM) was less than 31.6 nM and the IC50 (second compound 10 µM) was less than 31.6 nM. It also gave a viability, T/C [1] of 81%, a viability, T/C [2] of 62.6% and a viability, T/C [3] of 53.3%. For the same compound, the viability, T/C [4] was 8.83%, the viability, T/C [5] was 0.53% and the viability, T/C [6] was 0.27%. The viability, T/C [7] was 66.3%, the viability, T/C [8] was 57.2% and the viability, T/C [9] was 42%. For the same compound, the viability, T/C [10] was 8.37%, the viability, T/C [11] was 0.28% and the viability, T/C [12] was 1.03%. It also gave a viability, T/C [13] of 59.1%, a viability, T/C [14] of 51.5% and a viability, T/C [15] of 35.7%. For the same compound, the viability, T/C [16] was 2.63%, the viability, T/C [17] was 0.22% and the viability, T/C [18] was 0.44%. It also gave a viability, T/C [19] of 39.8%, a viability, T/C [20] of 44.7% and a viability, T/C [21] of 23.2%. For the same compound, the viability, T/C [22] was 0.9%, the viability, T/C [23] was 1.33% and the viability, T/C [24] was 0.81%. The viability, T/C [25] was 45.5%, the viability, T/C [26] was 41.9% and the viability, T/C [27] was 18.6%. It also gave a viability, T/C [28] of 0.3%, a viability, T/C [29] of 0.21% and a viability, T/C [30] of 0.18%. The viability, T/C [31] was 36.3%, the viability, T/C [32] was 33.3% and the viability, T/C [33] was 14.1%. It also gave a viability, T/C [34] of 0.24%, a viability, T/C [35] of 1.65% and a viability, T/C [36] of 0.46%.

For CC[C@@]1(O)C(=O)OCc2c1cc1n(c2=O)Cc2cc3c(CN(C)C)c(O)ccc3nc2-1 + CN(C)c1ccc(Nc2c3ccc(NC(=O)CCN4CCCC4)cc3nc3cc(NC(=O)CCN4CCCC4)ccc23)cc1, the IC50 (second compound 0.0316 µM) was 180 nM, the IC50 (second compound 0.1 µM) was 185 nM and the IC50 (second compound 0.316 µM) was 168 nM. The IC50 (second compound 1 µM) was 191 nM, the IC50 (second compound 3.16 µM) was 128 nM and the IC50 (second compound 10 µM) was 232 nM. It also gave a viability, T/C (second compound 0.0316 µM, first compound 0.000999 µM) of 97.9%, a viability, T/C (second compound 0.0316 µM, first compound 0.00316 µM) of 88.1% and a viability, T/C (second compound 0.0316 µM, first compound 0.00999 µM) of 83.8%. It also gave a viability, T/C [1] of 90.6%, a viability, T/C (second compound 0.0316 µM, first compound 0.0999 µM) of 65% and a viability, T/C [3] of 35.6%. It also gave a viability, T/C (second compound 0.1 µM, first compound 0.000999 µM) of 94.8%, a viability, T/C (second compound 0.1 µM, first compound 0.00316 µM) of 106% and a viability, T/C (second compound 0.1 µM, first compound 0.00999 µM) of 95.9%. It also gave a viability, T/C [7] of 81%, a viability, T/C (second compound 0.1 µM, first compound 0.0999 µM) of 64.5% and a viability, T/C [9] of 38.4%. It also gave a viability, T/C (second compound 0.316 µM, first compound 0.000999 µM) of 97.3%, a viability, T/C (second compound 0.316 µM, first compound 0.00316 µM) of 117% and a viability, T/C (second compound 0.316 µM, first compound 0.00999 µM) of 107%. The viability, T/C [13] was 99.1%, the viability, T/C (second compound 0.316 µM, first compound 0.0999 µM) was 55.7% and the viability, T/C [15] was 43.1%. For the same compound, the viability, T/C (second compound 1 µM, first compound 0.000999 µM) was 89.1%, the viability, T/C (second compound 1 µM, first compound 0.00316 µM) was 97.7% and the viability, T/C (second compound 1 µM, first compound 0.00999 µM) was 99.1%. For the same compound, the viability, T/C [19] was 81.1%, the viability, T/C (second compound 1 µM, first compound 0.0999 µM) was 69.5% and the viability, T/C [21] was 35.8%. It also gave a viability, T/C (second compound 3.16 µM, first compound 0.000999 µM) of 104%, a viability, T/C (second compound 3.16 µM, first compound 0.00316 µM) of 99.7% and a viability, T/C (second compound 3.16 µM, first compound 0.00999 µM) of 87.2%. It also gave a viability, T/C [25] of 76.6%, a viability, T/C (second compound 3.16 µM, first compound 0.0999 µM) of 52.6% and a viability, T/C [27] of 35.5%. It also gave a viability, T/C (second compound 10 µM, first compound 0.000999 µM) of 108%, a viability, T/C (second compound 10 µM, first compound 0.00316 µM) of 98.6% and a viability, T/C (second compound 10 µM, first compound 0.00999 µM) of 88.3%. For the same compound, the viability, T/C [31] was 94.6%, the viability, T/C (second compound 10 µM, first compound 0.0999 µM) was 63.5% and the viability, T/C [33] was 44%.

With C#Cc1c(F)ccc2cc(O)cc(-c3ncc4c(N5CC6CCC(C5)N6)nc(OCC56CCCN5CC(F)C6)nc4c3F)c12 (stereo unspecified) + Cc1cnc(CNC(=O)c2c(=O)c3ccc(N4CCCN(C)CC4)nc3n3c2sc2ccccc23)cn1 the IC50 (second compound 0.0316 µM) was greater than 10000 nM, the IC50 (second compound 0.1 µM) was greater than 10000 nM and the IC50 (second compound 0.316 µM) was greater than 10000 nM. For the same compound, the IC50 (second compound 1 µM) was less than 31.6 nM, the IC50 (second compound 3.16 µM) was less than 31.6 nM and the IC50 (second compound 10 µM) was less than 31.6 nM. The viability, T/C [1] was 97%, the viability, T/C [2] was 89.9% and the viability, T/C [3] was 97.7%. It also gave a viability, T/C [4] of 81%, a viability, T/C [5] of 91.9% and a viability, T/C [6] of 87.8%. For the same compound, the viability, T/C [7] was 78.4%, the viability, T/C [8] was 80% and the viability, T/C [9] was 68.4%. For the same compound, the viability, T/C [10] was 72.3%, the viability, T/C [11] was 72.8% and the viability, T/C [12] was 76.3%. For the same compound, the viability, T/C [13] was 59.3%, the viability, T/C [14] was 60% and the viability, T/C [15] was 62.3%. It also gave a viability, T/C [16] of 61.6%, a viability, T/C [17] of 63.3% and a viability, T/C [18] of 50.9%. The viability, T/C [19] was 45.2%, the viability, T/C [20] was 50.1% and the viability, T/C [21] was 48.6%. For the same compound, the viability, T/C [22] was 50.3%, the viability, T/C [23] was 45.7% and the viability, T/C [24] was 50.5%. For the same compound, the viability, T/C [25] was 44%, the viability, T/C [26] was 44.7% and the viability, T/C [27] was 44.4%. For the same compound, the viability, T/C [28] was 38.1%, the viability, T/C [29] was 48.7% and the viability, T/C [30] was 44.6%. For the same compound, the viability, T/C [31] was 40.5%, the viability, T/C [32] was 40.4% and the viability, T/C [33] was 36.4%. For the same compound, the viability, T/C [34] was 35.1%, the viability, T/C [35] was 37.5% and the viability, T/C [36] was 37.4%.
